Results taken from patent US20260167620A1, “MULTIFUNCTIONAL COMPOUND CAPABLE OF DEGRADING BTK KINASE, AND COMPOSITION AND USE” (HANGZHOU HEALZEN THERAPEUTICS CO., LTD., priority 2021, published 2026).
One block for each molecule: values may come before it.

Columns and labels:
BTK = biological target: T1, BTK (Homo sapiens, UniProt Q06187); assay: BTK degradation activity test in Mino cells (Westernblot or Elisa); assay type: cell-based; conditions: 24-72 h incubation
T1 construct: endogenous in cells; host or cells: Mino cells
T1 sequence (Q06187 whole entry): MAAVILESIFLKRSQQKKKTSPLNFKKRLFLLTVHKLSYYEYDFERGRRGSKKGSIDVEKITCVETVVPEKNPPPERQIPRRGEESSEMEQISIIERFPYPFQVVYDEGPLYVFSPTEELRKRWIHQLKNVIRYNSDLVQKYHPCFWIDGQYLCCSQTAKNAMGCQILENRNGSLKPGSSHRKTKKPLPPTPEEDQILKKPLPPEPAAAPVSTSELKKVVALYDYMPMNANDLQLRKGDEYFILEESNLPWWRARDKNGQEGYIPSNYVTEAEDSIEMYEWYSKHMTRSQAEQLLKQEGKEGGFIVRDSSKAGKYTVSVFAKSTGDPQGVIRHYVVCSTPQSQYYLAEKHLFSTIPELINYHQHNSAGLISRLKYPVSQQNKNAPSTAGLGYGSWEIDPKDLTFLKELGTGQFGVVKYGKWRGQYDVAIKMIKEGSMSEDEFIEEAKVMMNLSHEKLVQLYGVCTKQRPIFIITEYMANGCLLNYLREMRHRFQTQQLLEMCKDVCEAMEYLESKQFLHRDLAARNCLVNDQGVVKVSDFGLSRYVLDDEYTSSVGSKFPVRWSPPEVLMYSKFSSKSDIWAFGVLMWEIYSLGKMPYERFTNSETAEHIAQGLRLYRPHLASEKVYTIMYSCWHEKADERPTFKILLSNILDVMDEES
Protocol: The Mino cell line cells are 0.5˜1 million/well in 6-well plates. The compounds are diluted to different concentrations, added to the plate, and after 24-72 h of incubation, the cells are collected. After the cells were lysed, the total protein concentration in each well was determined with a BCA kit. The amount of BTK is determined using the Westernblot or Elisa method.

Mino cells = assay: Inhibitory activity on Mino cell proliferation (MTS); assay type: cell-based; conditions: Homo sapiens, 72 h or 168 h
Protocol: The anti-tumor efficacy of the compounds was tested by measuring their inhibitory effects on OCI-LY10 and Mino cell proliferation. OCI-LY10 and Mino cells were cultured in RPM-1640 medium containing […] fetal calf serum. OCI-LY10 and Mino cells were digested, inoculated in a 96-well plate at a cell concentration of 10000 cells/well, and incubated overnight at 37° C., 5% CO2. Compounds of different concentrations (1000 nM, 4-fold dilution, 8 points) were added to the 96-well plate and incubated for 72 h or 168 h at 37° C. and […], and then 20 μL of MTS was added to each well. After incubation for 2 h, 25 μl of 10% SDS was added to each well to terminate the reaction. The absorbance at 490 nm and 650 nm were measured with a microplate reader. IC50 was calculated using GraphPad Prism 5.0.

Structure (SMILES): Cn1c(=O)n(C2CCC(=O)NC2=O)c2ccc(N3CCC(CN4CCC(c5ccc(Nc6nc(N7CCCCC7)nnc6C(N)=O)cc5)CC4)C3)cc21 (stereo not shown) [Compound 011, 5-((4-(1-((1-(1-(2,6-dioxopiperidin-3-yl)-3-methyl-2-oxo-2,3-dihydro-1H-benzo[d]imidazol-5-yl)pyrrolidin-3-yl)methyl)piperidin-4-yl)phenyl)amino)-3-(piperidin-1-yl)-1,2,4-triazine-6-carboxamide]
DC50 (BTK): < 10 nM
IC50 (Mino cells): 4.2 nM

Structure (SMILES): Cc1cc(N2CCC(=O)NC2=O)ccc1N1CCC(CN2CCN(c3ccc(Nc4nc(N5CCCCC5)nnc4C(N)=O)cc3F)CC2)CC1 [Compound 084, 5-((4-(4-((1-(4-(2,4-dioxotetrahydropyrimidin-1(2H)-yl)-2-methylphenyl)piperidin-4-yl)methyl)piperazin-1-yl)-3-fluorophenyl)amino)-3-(piperidin-1-yl)-1,2,4-triazine-6-carboxamide]
DC50 (BTK): < 10 nM
IC50 (Mino cells): 3.3 nM

Structure (SMILES): NC(=O)c1nnc(N2CCCCC2)nc1Nc1ccc(N2CCC(CN3CCN(c4ccc(N5CCC(=O)NC5=O)cc4)CC3)CC2)c(F)c1 [Compound 050, 5-((4-(4-((4-(4-(2,4-dioxotetrahydropyrimidin-1(2H)-yl)phenyl)piperazin-1-yl)methyl)piperidin-1-yl)-3-fluorophenyl)amino)-3-(piperidin-1-yl)-1,2,4-triazine-6-carboxamide]
DC50 (BTK): < 10 nM
IC50 (Mino cells): 6.05 nM

Structure (SMILES): Cc1cc(N2CCC(CN3CCN(c4ccc(Nc5nc(N6CCOCC6)nnc5C(N)=O)cc4F)CC3)CC2)ccc1N1CCC(=O)NC1=O [Compound 098, 5-((4-(4-((1-(4-(2,4-dioxotetrahydropyrimidin-1(2H)-yl)-3-methylphenyl)piperidin-4-yl)methyl)piperazin-1-yl)-3-fluorophenyl)amino)-3-morpholino-1,2,4-triazine-6-carboxamide]
DC50 (BTK): < 10 nM
IC50 (Mino cells): 3.11 nM

Structure (SMILES): NC(=O)c1cnc(N2CCCCC2)nc1Nc1ccc(C2CCN(CC3CCN(c4ccc5c(c4)C(=O)N(C4CCC(=O)NC4=O)C5=O)C3)CC2)cc1 (stereo not shown) [Compound 033, 4-((4-(1-((1-(2-(2,6-dioxopiperidin-3-yl)-1,3-dioxoisoindolin-5-yl)pyrrolidin-3-yl)methyl)piperidin-4-yl)phenyl)amino)-2-(piperidin-1-yl) pyrimidine-5-carboxamide]
DC50 (BTK): < 10 nM
IC50 (Mino cells): 9.1 nM

Structure (SMILES): NC(=O)c1nnc(N2CCC[C@@H](O)C2)nc1Nc1ccc(C2CCN(CC3CCN(c4ccc5c(c4)C(=O)N(C4CCC(=O)NC4=O)C5=O)C3)CC2)c(F)c1 (stereo partly drawn) [Compound 067, 5-((4-(1-((1-(2-(2,6-dioxopiperidin-3-yl)-1,3-dioxoisoindolin-5-yl)pyrrolidin-3-yl)methyl)piperidin-4-yl)-3-fluorophenyl)amino)-3-((R)-3-hydroxypiperidin-1-yl)-1,2,4-triazine-6-carboxamide]
DC50 (BTK): < 10 nM

Structure (SMILES): CC(=O)N[C@@H]1CCCN(c2nnc(C(N)=O)c(Nc3ccc(N4CCN(CC5CCN(c6ccc(NC7CCC(=O)NC7=O)c(F)c6)CC5)CC4)c(F)c3)n2)C1 (stereo partly drawn) [Compound 097, 3-((R)-3-acetamidopiperidin-1-yl)-5-((4-(4-((1-(4-((2,6-dioxopiperidin-3-yl)amino)-3-fluorophenyl)piperidin-4-yl)methyl)piperazin-1-yl)-3-fluorophenyl)amino)-1,2,4-triazine-6-carboxamide]
DC50 (BTK): < 10 nM

Structure (SMILES): NC(=O)c1nnc(N2CCCCC2)nc1Nc1ccc(C2CCN(CC3CCN(c4ccc5c(c4)CCN(C4CCC(=O)NC4=O)C5=O)C3)CC2)cc1 (stereo not shown) [Compound 013, 5-((4-(1-((1-(2-(2,6-dioxopiperidin-3-yl)-1-oxo-1,2,3,4-tetrahydroisoquinolin-6-yl)pyrrolidin-3-yl)methyl)piperidin-4-yl)phenyl)amino)-3-(piperidin-1-yl)-1,2,4-triazine-6-carboxamide]
DC50 (BTK): < 10 nM
IC50 (Mino cells): 3.37 nM

Structure (SMILES): Cc1nc(C(N)=O)c(Nc2ccc(C3CCN(CC4CCN(c5ccc6c(c5)C(=O)N(C5CCC(=O)NC5=O)C6=O)C4)CC3)cc2)nc1N1CCCCC1 (stereo not shown) [Compound 039, 3-((4-(1-((1-(2-(2,6-dioxopiperidin-3-yl)-1,3-dioxoisoindolin-5-yl)pyrrolidin-3-yl)methyl)piperidin-4-yl)phenyl)amino)-6-methyl-5-(piperidin-1-yl) pyrazine-2-carboxamide]
DC50 (BTK): < 10 nM

Structure (SMILES): NC(=O)c1cnc(N2CCCCC2)nc1Nc1ccc(N2CCN(CC3CCN(c4ccc5c(c4)C(=O)N(C4CCC(=O)NC4=O)C5=O)C3)CC2)c(F)c1 (stereo not shown) [Compound 034, 4-((4-(4-((1-(2-(2,6-dioxopiperidin-3-yl)-1,3-dioxoisoindolin-5-yl)pyrrolidin-3-yl)methyl)piperazin-1-yl)-3-fluorophenyl)amino)-2-(piperidin-1-yl) pyrimidine-5-carboxamide]
DC50 (BTK): < 10 nM

Structure (SMILES): CC(=O)N[C@@H]1CCCN(c2nnc(C(N)=O)c(Nc3ccc(N4CCN(CC5CCN(c6ccc(N7CCC(=O)NC7=O)cc6)CC5)CC4)c(F)c3)n2)C1 [Compound 091, (R)-3-(3-acetamidopiperidin-1-yl)-5-((4-(4-((1-(4-(2,4-dioxotetrahydropyrimidin-1(2H)-yl)phenyl)piperidin-4-yl)methyl)piperazin-1-yl)-3-fluorophenyl)amino)-1,2,4-triazine-6-carboxamide]
DC50 (BTK): < 10 nM

Structure (SMILES): NC(=O)c1nnc(N2CCCCC2)nc1Nc1ccc(N2CCN(C(=O)C3CN(c4ccc5c(c4)C(=O)N(C4CCC(=O)NC4=O)C5=O)C3)CC2)cc1 (stereo not shown) [Compound 061, 5-((4-(4-(1-(2-(2,6-dioxopiperidin-3-yl)-1,3-dioxoisoindolin-5-yl)azetidine-3-carbonyl)piperazin-1-yl)phenyl)amino)-3-(piperidin-1-yl)-1,2,4-triazine-6-carboxamide]
DC50 (BTK): < 10 nM

Structure (SMILES): NC(=O)c1nnc(N2CCCCC2)nc1Nc1ccc(N2CCN(C(=O)C3CCN(c4ccc5c(c4)C(=O)N(C4CCC(=O)NC4=O)C5=O)CC3)CC2)cc1 (stereo not shown) [Compound 058, 5-((4-(4-(1-(2-(2,6-dioxopiperidin-3-yl)-1,3-dioxoisoindolin-5-yl)piperidine-4-carbonyl)piperazin-1-yl)phenyl)amino)-3-(piperidin-1-yl)-1,2,4-triazine-6-carboxamide]
DC50 (BTK): < 10 nM

Structure (SMILES): NC(=O)c1nnc(N2CCCCC2)nc1Nc1ccc(C2CCN(CC3CCN(c4ccc5c(=O)n(C6CCC(=O)NC6=O)ccc5c4)C3)CC2)cc1 (stereo not shown) [Compound 012, 5-((4-(1-((1-(2-(2,6-dioxopiperidin-3-yl)-1-oxo-1,2-dihydroisoquinolin-6-yl)pyrrolidin-3-yl)methyl)piperidin-4-yl)phenyl)amino)-3-(piperidin-1-yl)-1,2,4-triazine-6-carboxamide]
DC50 (BTK): < 10 nM
IC50 (Mino cells): 1.22 nM

Second part, led by results:

DC50 (BTK): < 10 nM
Structure (SMILES): NC(=O)c1nnc(N2CCCCC2)nc1Nc1ccc(N2CCN(CC3CCN(c4ccc(-c5ccc(=O)[nH]n5)cc4C(F)(F)F)CC3)CC2)c(F)c1 [Compound 087, 5-((3-fluoro-4-(4-((1-(4-(6-oxo-1,6-dihydropyridazin-3-yl)-2-(trifluoromethyl)phenyl)piperidin-4-yl)methyl)piperazin-1-yl)phenyl)amino)-3-(piperidin-1-yl)-1,2,4-triazine-6-carboxamide]
IC50 (Mino cells): 4.31 nM

DC50 (BTK): < 10 nM
Structure (SMILES): NC(=O)c1nnc(N2CCCCC2)nc1Nc1ccc(N2CCN(CC3CN(c4ccc5c(c4)C(=O)N(C4CCC(=O)NC4=O)C5=O)C3)CC2)cc1 (stereo not shown) [Compound 006, 5-((4-(4-((1-(2-(2,6-dioxopiperidin-3-yl)-1,3-dioxoisoindolin-5-yl)azetidin-3-yl)methyl)piperazin-1-yl)phenyl)amino)-3-(piperidin-1-yl)-1,2,4-triazine-6-carboxamide]

DC50 (BTK): < 10 nM
Structure (SMILES): CC[C@H](Nc1nnc(C(N)=O)c(Nc2ccc(C3CCN(CC4CCN(c5ccc6c(c5)C(=O)N(C5CCC(=O)NC5=O)C6=O)C4)CC3)cc2)n1)C(N)=O (stereo partly drawn) [Compound 017, 3-(((S)-1-amino-1-oxobutan-2-yl)amino)-5-((4-(1-((1-(2-(2,6-dioxopiperidin-3-yl)-1,3-dioxoisoindolin-5-yl)pyrrolidin-3-yl)methyl)piperidin-4-yl)phenyl)amino)-1,2,4-triazine-6-carboxamide]

DC50 (BTK): < 10 nM
Structure (SMILES): NC(=O)c1nnc(N2CCCCC2)nc1Nc1ccc(C2CCN(C(=O)C3CCN(c4ccc5c(c4)C(=O)N(C4CCC(=O)NC4=O)C5=O)C3)CC2)cc1 (stereo not shown) [Compound 055, 5-((4-(1-(1-(2-(2,6-dioxopiperidin-3-yl)-1,3-dioxoisoindolin-5-yl)pyrrolidine-3-carbonyl)piperidin-4-yl)phenyl)amino)-3-(piperidin-1-yl)-1,2,4-triazine-6-carboxamide]

DC50 (BTK): < 10 nM
Structure (SMILES): NC(=O)c1nnc(N2CCOCC2)nc1Nc1ccc(N2CCN(CC3CCN(c4ccc(C(=O)NC5CCC(=O)NC5=O)c(F)c4)CC3)CC2)c(F)c1 (stereo not shown) [Compound 101, 5-((4-(4-((1-(4-((2,6-dioxopiperidin-3-yl)carbamoyl)-3-fluorophenyl)piperidin-4-yl)methyl)piperazin-1-yl)-3-fluorophenyl)amino)-3-morpholino-1,2,4-triazine-6-carboxamide]

DC50 (BTK): < 10 nM
Structure (SMILES): NC(=O)c1nnc(N2CCCCC2)nc1Nc1ccc(N2CCN(CC3CCN(c4ccc(N5CCC(=O)NC5=O)cc4)CC3)CC2)c(F)c1 [Compound 080, 5-((4-(4-((1-(4-(2,4-dioxotetrahydropyrimidin-1(2H)-yl)phenyl)piperidin-4-yl)methyl)piperazin-1-yl)-3-fluorophenyl)amino)-3-(piperidin-1-yl)-1,2,4-triazine-6-carboxamide]
